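Grown in 96-well plates, cells were treated for 48 hours with each compound at five concentrations. Insufficient inhibition: endpoint recorded as highest concentration tested. At the GI50, growth is halved.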 Activity calls are given as the source filed them. Rule as the data show it: active = GI50 up to about 1.1 µM and inactive = higher.

Test systems include CAKI-1; M14; DU-145; LOX IMVI; MDA-N; HCT-116; BT-549; NCI-H460; ACHN; SR; SF-268; OVCAR-4; Hs-578T; HCC 2998; HOP-62; UACC-257; OVCAR-5; MOLT-4; COLO 205; CCRF-CEM.
Common to all, as to assay: NCI tumour cell line growth inhibition, 48 h

Regarding `c1ccc2sc(SCCSc3nc4ccccc4s3)nc2c1`, the GI50 in the experiment with CAKI-1, in the experiment on M14, in the experiment on DU-145, with LOX IMVI, with MDA-N and in the experiment on HCT-116 was > 100 µM (inactive) in each case. In addition, the GI50 with BT-549 was > 100 µM (inactive); in the experiment on NCI-H460 it was > 100 µM (inactive); in the experiment on ACHN, > 100 µM (inactive); with SR, > 100 µM (inactive); in the experiment with SF-268, > 100 µM (inactive); with OVCAR-4 it was 52.1 µM (inactive). The GI50 in the experiment with Hs-578T is > 100 µM (inactive); in the experiment with HCC 2998, 20.3 µM (inactive); with HOP-62, > 100 µM (inactive); in the experiment on UACC-257 it was > 100 µM (inactive); in the experiment on OVCAR-5, > 100 µM (inactive).

As for `O=C(O)/C=C\C(=O)Nc1ccccn1`, the GI50 in the experiment on CAKI-1, with M14, with DU-145, in the experiment on LOX IMVI, in the experiment on MDA-N and in the experiment on HCT-116 was > 100 µM (inactive) in each case. In addition, the GI50 in the experiment on MOLT-4, in the experiment on BT-549, with NCI-H460, in the experiment on ACHN, in the experiment on SR and with SF-268 was > 100 µM (inactive) in each case. In addition, the GI50 in the experiment with OVCAR-4, in the experiment with COLO 205, in the experiment with Hs-578T, with CCRF-CEM, in the experiment on HOP-62 and in the experiment on UACC-257 was > 100 µM (inactive) throughout. In the experiment on OVCAR-5, the GI50 is > 100 µM (inactive).

`CSc1nc(C#N)c(N)n1C`: the GI50 was > 100 µM (inactive) in the experiment on CAKI-1; > 100 µM (inactive) with M14; 64.1 µM (inactive) in the experiment with DU-145; > 100 µM (inactive) in the experiment on LOX IMVI; > 100 µM (inactive) with MDA-N; > 100 µM (inactive) in the experiment on HCT-116. Also, the GI50 in the experiment on MOLT-4, with BT-549, with NCI-H460, in the experiment on ACHN, in the experiment on SR and in the experiment with SF-268 was > 100 µM (inactive) in each case. The GI50 with OVCAR-4, with COLO 205, in the experiment with Hs-578T, in the experiment on CCRF-CEM, in the experiment with HOP-62 and in the experiment with UACC-257 was > 100 µM (inactive) throughout. Moreover, the GI50 with OVCAR-5 is > 100 µM (inactive).

Take `N#C/C(=C/N1C(=O)/C(=C/c2ccc([N+](=O)[O-])cc2)SC1=S)c1nc2ccccc2s1`: the GI50 is 30.8 µM (inactive) in the experiment on CAKI-1; 27.8 µM (inactive) with M14; 31.8 µM (inactive) with DU-145; 26.4 µM (inactive) in the experiment on LOX IMVI; 24.4 µM (inactive) in the experiment on MDA-N; 14.3 µM (inactive) in the experiment with HCT-116. The GI50 is 19.4 µM (inactive) in the experiment with BT-549; 14.8 µM (inactive) in the experiment with NCI-H460; 17.3 µM (inactive) in the experiment with ACHN; 25.6 µM (inactive) in the experiment with SR; 24.7 µM (inactive) in the experiment with SF-268; 29.7 µM (inactive) with OVCAR-4. Further, the GI50 is 14.5 µM (inactive) in the experiment with COLO 205; 29.6 µM (inactive) in the experiment with Hs-578T; 24.5 µM (inactive) in the experiment with CCRF-CEM; 14.2 µM (inactive) with HCC 2998; 0.406 µM (active) with HOP-62; 14.2 µM (inactive) with UACC-257. The GI50 with OVCAR-5 is 29.1 µM (inactive).

Consider `Cn1c(CO)ccc1-c1ccc(-c2ccc[se]2)[se]1`, for which the GI50 is < 0.01 µM (active) with CAKI-1; 42.9 µM (inactive) in the experiment on M14; 17.7 µM (inactive) with DU-145; 47.9 µM (inactive) with LOX IMVI; 15.5 µM (inactive) with MDA-N; 19.6 µM (inactive) in the experiment with MOLT-4. Moreover, the GI50 in the experiment on BT-549 is 21.8 µM (inactive); in the experiment with NCI-H460, 14.2 µM (inactive); in the experiment on ACHN it was 72.1 µM (inactive); in the experiment on SR it was 30.3 µM (inactive); in the experiment with SF-268 it was 56.9 µM (inactive); in the experiment on OVCAR-4, 0.043 µM (active). The GI50 in the experiment with COLO 205 is 3.46 µM (inactive); with Hs-578T, 55 µM (inactive); in the experiment with CCRF-CEM, 23.1 µM (inactive); in the experiment with HCC 2998 it was 0.798 µM (active); in the experiment with HOP-62, 20.7 µM (inactive).

For the compound `Cc1ccc(C2(N3CCOCC3)OC(C)(C)c3cccc4cccc2c34)cc1` (centres undefined), the GI50 with CAKI-1 was 18.2 µM (inactive); in the experiment with M14, 16.8 µM (inactive); in the experiment on DU-145, 18 µM (inactive); in the experiment on LOX IMVI, 16.5 µM (inactive); in the experiment on MDA-N, 17.9 µM (inactive); in the experiment with HCT-116 it was 17.1 µM (inactive). Further, the GI50 in the experiment with MOLT-4 was 41.5 µM (inactive); with BT-549, 17.3 µM (inactive); in the experiment with NCI-H460 it was 14.5 µM (inactive); in the experiment with ACHN, 16.3 µM (inactive); in the experiment with SR, 35.1 µM (inactive); in the experiment on SF-268, 14.4 µM (inactive). Also, the GI50 is 15.9 µM (inactive) with OVCAR-4; 15.9 µM (inactive) in the experiment with COLO 205; 20.9 µM (inactive) in the experiment with Hs-578T; 22.6 µM (inactive) with CCRF-CEM; 15.7 µM (inactive) in the experiment with HOP-62; 18 µM (inactive) in the experiment with UACC-257. Moreover, the GI50 in the experiment with OVCAR-5 was 15.8 µM (inactive).

As for `O=c1[nH]c2ccc(Cl)cc2o1`, the GI50 in the experiment with CAKI-1, with M14, in the experiment on DU-145, in the experiment on LOX IMVI, in the experiment with MDA-N and with HCT-116 was > 100 µM (inactive) in each case. Further, the GI50 in the experiment with MOLT-4, in the experiment on BT-549, with NCI-H460, with ACHN, in the experiment on SR and in the experiment on SF-268 was > 100 µM (inactive) throughout. In addition, the GI50 in the experiment on OVCAR-4, in the experiment on COLO 205, in the experiment with Hs-578T, in the experiment with CCRF-CEM, in the experiment on HOP-62 and in the experiment on UACC-257 was > 100 µM (inactive) in each case. The GI50 with OVCAR-5 was > 100 µM (inactive).

With `Cc1c2c(n3c(nc4ccccc43)c1C#N)NCC2`, the GI50 with CAKI-1, in the experiment on M14, with DU-145, in the experiment with LOX IMVI, in the experiment with MDA-N and with HCT-116 was > 10 µM (inactive) in each case. The GI50 in the experiment with MOLT-4, with BT-549, in the experiment on NCI-H460, in the experiment on ACHN, with SR and in the experiment with SF-268 was > 10 µM (inactive) each time. Also, the GI50 in the experiment on OVCAR-4, in the experiment with COLO 205, with Hs-578T, in the experiment on CCRF-CEM, in the experiment on HOP-62 and with UACC-257 was > 10 µM (inactive) in each case. The GI50 in the experiment with OVCAR-5 was > 10 µM (inactive).

Consider `CCNC(=S)N/N=C(\C)c1cccc(C)n1`, for which the GI50 in the experiment with M14 is 11 µM (inactive); with DU-145 it was 14.9 µM (inactive); in the experiment on LOX IMVI, 18.6 µM (inactive); in the experiment on MDA-N, 28.2 µM (inactive); with HCT-116, 7.18 µM (inactive); in the experiment with MOLT-4 it was 0.631 µM (active). Moreover, the GI50 in the experiment on BT-549 is 31.5 µM (inactive); in the experiment with NCI-H460 it was 6.01 µM (inactive); with ACHN, 9.27 µM (inactive); in the experiment on SR it was > 100 µM (inactive); with SF-268, 2.4 µM (inactive); with COLO 205, 0.748 µM (active). Moreover, the GI50 in the experiment on Hs-578T is > 100 µM (inactive); in the experiment with CCRF-CEM, 0.351 µM (active); in the experiment with HCC 2998, 3.13 µM (inactive); in the experiment with HOP-62 it was 29.7 µM (inactive); in the experiment on UACC-257 it was 5.2 µM (inactive); in the experiment on OVCAR-5 it was 9.31 µM (inactive).

Regarding `Cc1ccc(C)c(COCCOCn2cc(Br)c(N)nc2=O)c1`, the GI50 in the experiment with CAKI-1, in the experiment on M14, in the experiment with DU-145, in the experiment on LOX IMVI, in the experiment on MDA-N and with HCT-116 was > 100 µM (inactive) throughout. For the same compound, the GI50 with MOLT-4, in the experiment with BT-549, in the experiment with NCI-H460, in the experiment with ACHN, in the experiment on SR and with SF-268 was > 100 µM (inactive) each time. The GI50 in the experiment with COLO 205 is > 100 µM (inactive); in the experiment with Hs-578T it was > 100 µM (inactive); in the experiment with CCRF-CEM, > 100 µM (inactive); in the experiment on HCC 2998, > 100 µM (inactive); with HOP-62 it was 57.3 µM (inactive); in the experiment with UACC-257, > 100 µM (inactive). In addition, the GI50 in the experiment on OVCAR-5 is > 100 µM (inactive).

With `CC(O)C1(CNc2cc(Cl)nc(N)n2)CC(CCc2ccccc2)C1` (centres undefined), the GI50 was 11 µM (inactive) in the experiment with CAKI-1; 17.9 µM (inactive) in the experiment with M14; 16.4 µM (inactive) in the experiment on DU-145; 3.92 µM (inactive) in the experiment on LOX IMVI; 12.9 µM (inactive) in the experiment with MDA-N; 8.28 µM (inactive) with HCT-116. Besides, the GI50 was 11.6 µM (inactive) in the experiment with MOLT-4; 15.9 µM (inactive) with BT-549; 14 µM (inactive) in the experiment on NCI-H460; 9.73 µM (inactive) with ACHN; 6.15 µM (inactive) in the experiment with SR; 14.9 µM (inactive) with SF-268. In addition, the GI50 in the experiment on OVCAR-4 was 10.2 µM (inactive); in the experiment with COLO 205 it was 15.5 µM (inactive); in the experiment with Hs-578T, 17.3 µM (inactive); in the experiment on CCRF-CEM it was 17.6 µM (inactive); in the experiment on HOP-62 it was 14.1 µM (inactive); in the experiment with UACC-257, 4.56 µM (inactive). Also, the GI50 in the experiment with OVCAR-5 was 17.2 µM (inactive).

These data come from ChEMBL document CHEMBL1201862, “PubChem BioAssay data set” (2004).
